In US11873321B2, “Compositions and methods for treating alzheimer's disease” (Generos Biopharma Ltd., priority 2017, dated 2024):

What was measured:
[1] = test system: APP over-expression SH-SY5Y cell line; assay: FACS analysis of surface APP; type: cell-based, human; details: 25-OHC treated vs control cells
Method: (§1) FIGS. 8A-8C show graphs and images depicting that treatment with 25-OHC decreased exosomal APP but increases intracellular APP. SH-SY5Y cells with APP over-expression were treated with different dosage of 25-OHC.
More amounts of APP were detected on the cell surface of cells overexpressing APP after 25-OHC treatment.

[2] = test system: APP over-expression SH-SY5Y cell line; assay: Western blot of APP in cell lysate and in exosomes purified from the medium after 25-OHC treatment; type: cell-based, human; details: different dosage of 25-OHC
Method: as §1
(§2) SH-SY5Y cells over-express human APP were cultured in DMEM with 10% FBS. One day before exosome preparation, medium was changed to blank DMEM to avoid the contamination of serum exosomes. 24 hour after medium change, the mediums were collected, and spin at 200 g for 5 min to pellet down floating cells. The cell free medium was further centrifuged at 100,000 g for 1 h at 4° C., and the pellet containing exosomes was dissolved in RIPA buffer
We used APP over-expression SH-SY5Y cell line to further check if the difference in exosomal APP is due to 25-OHC. Cells were treated with different dosage of 25-OHC and both cell lysate and exosomes from medium were collected. […] In contract, as the dosage of 25-OHC increased, more APP was found in the cell lysate fraction.

APP/PS1 mice = details: 2-month-old, injected every other day for 1 month, vs saline
Method: Mice at 2-month-old were injected with 25-OHC or saline as control every other day for duration of 1 month. Brains from these mice were sectioned and stained for amyloid-beta.
All experiments were performed with mice 3-4 months old and approved by the Institutional Animal Care and Use Committee of NUS.
Tissues were fixed in 4% paraformaldehyde, dehydrated, penetrated and paraffin embedded. […] For immunofluorescence (IF) or immunohistochemistry (IHC), sections were rehydrated and stained with primary antibody against Aβ (Cell signaling), followed by incubation with fluorescence-conjugated secondary antibodies (Invitrogen).

APP trafficking in cells = assay: Trafficking of antibody-labelled surface APP (fixed time points, time-lapse); type: cell-based; details: 25-OHC treated vs untreated cells; in untreated cells signal disappeared within 6 hours
Method: FIGS. 10A-10C show images depicting increased retention time of APP inside cells after treatment with 25-OHC. […] Cells were fixed at different time points to check the distribution of APP at specific time.
We went on to check the trafficking of APP protein. Surface APP were labeled by antibody, and cells were put back to incubator and fixed at different time point for staining.

[3] = test system: APP over-expression SH-SY5Y cell line; assay: ELISA measurement of Aβ42 in exosomes collected from cell culture medium; type: cell-based, human; details: different concentration of 25-OHC; three independent experiments
Method: ELISA measurement of Aβ42 in exosomes collected from cell culture medium with different concentration of 25-OHC treatment. Data are representative of three independent experiments. *p<0.05.
as §2
Quantification of Aβ42 was carried out with ELISA kit (Millipore) according to the manufactures' instructions.
Data are representative of three independent experiments.

SH-SY5Y cells = details: co-treatment with 25-OHC, cells lysed 24 h later, blotted for APP

SMILES | amount of APP on cell surface (FACS) [1] | cellular APP (cell lysate, Western blot) ([2]; APP over-expression SH-SY5Y cells) | exosomal APP (Western blot) ([2]; exosomes from medium) | amount of Aβ in brain (plaque staining) (APP/PS1 mice) | trafficking / retention of APP in cells (APP trafficking in cells) | Aβ42 in exosomes (ELISA) [3] | effect on 25-OHC induced increase of cellular APP (SH-SY5Y cells)
C[C@H](CCCC(C)(C)O)[C@H]1CC[C@H]2[C@@H]3CC=C4C[C@@H](O)CC[C@]4(C)[C@H]3CC[C@]12C [25-OHC, 25-hydroxylated cholesterol] | increased the amount of APP on cell surface | dosage dependent effect to increase cellular APP | decreasing exosomal APP | significant high amount of Aβ | the trafficking of APP was slower | increased Aβ42 in exosomes | –
CC(C)(C)C(=O)OCC(=O)[C@@]1(O)CC[C@H]2[C@@H]3CCC4=CC(=O)C=C[C@]4(C)[C@H]3[C@@H](O)C[C@@]21C [prednisolone trimethylacetate] | – | – | – | – | – | – | had no effect
